Data reported in US20240408082A1, “METHODS FOR TREATING CANCERS AND TUMORS” (BEYONDSPRING PHARMACEUTICALS, INC., priority 2021, published 2024).

Test system: BXF 2775
Assay: 3D clonogenic assay, Example 1, BXF 2775
Type: cell-based
Conditions: model BXF 2775
Protocol: In the present study, plinabulin was characterized for its ability to inhibit anchorage independent growth and ex vivo colony formation of tumor cells in semi-solid medium. The compound was investigated in 87 out of 93 originally planned tumor xenografts representing all major cancer types using a 3D clonogenic assay in a 96-well format with colony count based on image analysis as read-out. By using this assay, the investigational compound was assessed for the ability to inhibit anchorage independent growth and ex vivo colony formation of tumor cells in semi-solid medium.
A master stock solution of plinabulin was prepared by dissolving the compound in DMSO at a concentration of 9.9 mM. Working stock solutions were prepared by diluting the master stock solution with DMSO to a concentration of 0.99 mM (330-fold the highest test concentration). Small aliquots of the master and working stock were stored at −20° C. […]
Plinabulin was investigated in 87 PDX models representing a number of cancer types. […] The percentage of viable cells was determined in a Neubauer-hemocytometer using trypan blue exclusion. […]
The clonogenic assay was carried out in a 96 well plate format using ultra low attachment plates. […] Cultures were incubated at 37° C. and 7.5% CO2 in a humidified atmosphere 13 days in total and monitored closely for colony growth using an inverted microscope. […]

CC(C)(C)c1[nH]cnc1/C=c1\[nH]c(=O)/c(=C/c2ccccc2)[nH]c1=O [plinabulin, (3Z,6Z)-3-Benzylidene-6-{[5-(2-methyl-2-propanyl)-1H-imidazol-4-yl]methylene}-2,5-piperazinedione]
absolute IC70: 3 nM
